Measurements published in US12263171B2, “7-, 8-, and 10-substituted amino triazolo quinazoline derivatives as adenosine receptor antagonists, pharmaceutical compositions and their use” (Merck Sharp & Dohme LLC, priority 2018, dated 2025).

How the values were obtained:
[1] = molecular target: human A2a adenosine receptor (Homo sapiens (Human), UniProt P29274); assay: A2a receptor affinity radioligand binding assay ([3H] SCH58261, membranes from HEK293 or CHO cells); conditions: for IC50: unstarred values: radioligand binding
human A2a adenosine receptor, sequence (P29274 whole entry): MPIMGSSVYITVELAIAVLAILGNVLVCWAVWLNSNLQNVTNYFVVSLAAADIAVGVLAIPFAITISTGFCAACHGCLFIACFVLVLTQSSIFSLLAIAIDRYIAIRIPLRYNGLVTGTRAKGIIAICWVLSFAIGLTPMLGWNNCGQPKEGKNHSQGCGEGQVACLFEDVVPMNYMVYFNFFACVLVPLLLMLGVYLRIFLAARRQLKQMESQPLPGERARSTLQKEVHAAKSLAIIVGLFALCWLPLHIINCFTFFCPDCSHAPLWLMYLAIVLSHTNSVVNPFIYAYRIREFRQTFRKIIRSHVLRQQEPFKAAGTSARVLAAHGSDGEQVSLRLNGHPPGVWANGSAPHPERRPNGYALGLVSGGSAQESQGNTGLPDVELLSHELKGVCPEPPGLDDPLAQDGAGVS
Protocol: The A2a receptor affinity binding assay measured the amount of binding of a tritiated ligand with high affinity for the A2a adenosine receptor to membranes made from HEK293 or CHO cells recombinantly expressing the human A2a adenosine receptor, in the presence of varying concentrations of a compound of the invention.
Measurement of A2a Binding Affinity Using Radioligand Binding
148 μL, (5 μg/mL) membranes (Perkin Elmer, Cat. No. RBHA2aM4001A) and 2 μL compounds of the invention to be tested (test compound) were transferred to individual wells of a 96-well polypropylene assay plate and incubated for 15 to 30 minutes at room temperature. [^3H] SCH58261 ((7-(2-phenylethyl)-5-amino-2-(2-furyl)-pyrazolo-[4,3-e]-1,2,4-triazolo[1,5-c]pyrimidine)) was diluted in assay buffer (50 mM Tris pH 7.4, 10 mM MgCl2, 0.005% Tween20) to a concentration of 4 nM and 50 μL transferred to each well of the assay plate. […] The assay plate was incubated at room temperature for 60 minutes with agitation. […] Filtering was achieved by aspirating the contents of the assay plate for 5 seconds, then washing and aspirating the contents three times with ice-cooled wash buffer (50 mM Tris-HCl pH 7.4, 150 mM NaCl) and allowing the vacuum manifold to dry the plate for 30 seconds. The filter plate was incubated for at least 1 hour at 55° C. and allowed to dry. The bottom of the filter plate was sealed with backing tape. 40 μL. […] The plate was incubated for at least 20 minutes, and then the amount of radioactivity remaining in each well was determined using a TopCown® (Perkin Elmer) scintillation counter. After normalization to total and non-specific binding, the percent effect at each compound concentration was calculated. The plot of percent effect versus the log of compound concentration was analyzed electronically using a 4-parameter logistic fit based on the Levenberg-Marquardt algorithm to generate IC50 values.

[2] = molecular target: human A2b adenosine receptor (Homo sapiens (Human), UniProt P29275); assay: A2b radioligand filtration binding assay (tritiated proprietary A2b antagonist, HEK293 membranes); conditions: for IC50: unstarred values: radioligand binding; for A2B binding % inh. @ 10000 nM: unstarred
human A2b adenosine receptor, sequence (P29275 whole entry): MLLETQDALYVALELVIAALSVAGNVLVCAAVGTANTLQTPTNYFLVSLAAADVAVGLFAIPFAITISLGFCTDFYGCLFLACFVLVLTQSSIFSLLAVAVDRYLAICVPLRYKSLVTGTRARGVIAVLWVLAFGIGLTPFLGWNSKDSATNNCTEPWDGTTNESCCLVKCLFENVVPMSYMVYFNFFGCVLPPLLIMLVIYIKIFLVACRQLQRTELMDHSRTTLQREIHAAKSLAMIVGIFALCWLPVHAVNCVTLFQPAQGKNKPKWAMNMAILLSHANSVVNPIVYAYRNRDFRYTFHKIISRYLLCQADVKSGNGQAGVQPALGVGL
Protocol: Measurement of A2b Binding Affinity
The reported affinity of the compounds of the invention for the human A2b adenosine receptor was determined experimentally using a radioligand filtration binding assay. This assay measures the amount of binding of a tritiated proprietary A2b receptor antagonist, in the presence and absence of a compound of the invention, to membranes made from HEK293 cells recombinantly expressing the human A2b adenosine receptor (Perkin Elmer, Cat. No. ES-013-C).
The filter plate was incubated for at least 1 hour at 55° C. and allowed to dry. The bottom of the filter plate was then sealed with backing tape. […] The plates were then incubated for at least 20 minutes, and then the amount of radioactivity remaining in each well was determined using a TopCount® (Perkin Elmer) scintillation counter. After normalization to total and non-specific binding, the percent effect at each compound concentration was calculated. The plot of percent effect versus the log of compound concentration was analyzed electronically using a 4-parameter logistic fit based on the Levenberg-Marquardt algorithm to generate IC50 values.

IC50 [1] | IC50 [2] | A2B binding % inh. @ 10000 nM [2] | A2A binding % inh. @ 10000 nM ([1]; @ 10000 nM, unstarred) | SMILES
17.4 nM | 150 nM |  |  | Cn1cc(N2CCCC(c3nc4c5ccc(F)cc5nc(N)n4n3)C2)cn1 (single isomer, unassigned) [Example 168, (R or S)-8-fluoro-2-(1-(1-methyl-1H-pyrazol-4-yl)piperidin-3-yl)-[1,2,4]triazolo[1,5-c]quinazolin-5-amine]
7.7 nM | 4160 nM |  |  | Cn1cc(N2CCCC(c3nc4c5c(Cl)ccc(Cl)c5nc(N)n4n3)C2)cn1 (single isomer, unassigned) [Example 169, (R or S)-7, 10-dichloro-2-(1-(1-methyl-1H-pyrazol-4-yl)piperidin-3-yl)-[1,2,4]triazolo[1,5-c]quinazolin-5-amine]
204 nM |  | 28% inh. @ 10000 nM |  | Cn1cc(N2CCCC(c3nc4c5c(C(F)(F)F)cccc5nc(N)n4n3)C2)cn1 (single isomer, unassigned) [Example 170, (R or S)-2-(1-(1-methyl-1H-pyrazol-4-yl)piperidin-3-yl)-10-(trifluoromethyl)-[1,2,4]triazolo[1,5-c]quinazolin-5-amine]
34.9 nM | 956 nM |  |  | Cc1cccc2c1nc(N)n1nc(C3CCCN(c4cnn(C)c4)C3)nc21 (single isomer, unassigned) [Example 171, (R or S)-7-methyl-2-(1-(1-methyl-1H-pyrazol-4-yl)piperidin-3-yl)-[1,2,4]triazolo[1,5-c]quinazolin-5-amine]
34.2 nM | 375 nM |  |  | Cn1cc(N2CCCC(c3nc4c5c(F)ccc(F)c5nc(N)n4n3)C2)cn1 (single isomer, unassigned) [Example 172, (R or S)-7,10-difluoro-2-(1-(1-methyl-1H-pyrazol-4-yl)piperidin-3-yl)-[1,2,4]triazolo[1,5-c]quinazolin-5-amine]
3.6 nM | 403 nM |  |  | COc1c(Cl)ccc2c1nc(N)n1nc(C3CCCN(c4cnn(C)c4)C3)nc21 (single isomer, unassigned) [Example 173, (R or S)-8-chloro-7-methoxy-2-(1-(1-methyl-1H-pyrazol-4-yl)piperidin-3-yl)-[1,2,4]triazolo[1,5-c]quinazolin-5-amine]
44.3 nM | 480 nM |  |  | Cn1cc(N2CCCC(c3nc4c5ccc(C(F)(F)F)cc5nc(N)n4n3)C2)cn1 (single isomer, unassigned) [Example 174, (R or S)-2-(1-(1-methyl-1H-pyrazol-4-yl)piperidin-3-yl)-8-(trifluoromethyl)-[1,2,4]triazolo[1,5-c]quinazolin-5-amine]
0.8 nM | 84.9 nM |  |  | COc1ccc2c(c1)nc(N)n1nc([C@@H]3C[C@H](C)CN(c4cnn(CC(C)(C)O)c4)C3)nc21 (single isomer, unassigned) [Example 195D]
0.4 nM | 8.4 nM |  |  | C[C@H]1CC[C@@H](c2nc3c4ccc(Br)cc4nc(N)n3n2)CN1c1cnn(CC(C)(C)O)c1 (single isomer, unassigned) [Example 198, 1-(4-((2S,5R or 2R,5S)-5-(5-amino-8-bromo-[1,2,4]triazolo[1,5-c]quinazolin-2-yl)-2-methylpiperidin-1-yl)-4H-pyrazol-1-yl)-2-methylpropan-2-ol]
22.5 nM | 257 nM |  |  | Cc1ccc2c(c1)nc(N)n1nc(C3CCCN(c4cnn(C)c4)C3)nc21 (single isomer, unassigned) [Example 199, (R or S)-8-methyl-2-(1-(1-methyl-1H-pyrazol-4-yl)piperidin-3-yl)-[1,2,4]triazolo[1,5-c]quinazolin-5-amine]
11.8 nM | 152 nM |  |  | Cn1cc(N2CCCC(c3nc4c5ccc(Cl)cc5nc(N)n4n3)C2)cn1 (single isomer, unassigned) [Example 200, (R or S)-8-chloro-2-(1-(1-methyl-1H-pyrazol-4-yl)piperidin-3-yl)-[1,2,4]triazolo[1,5-c]quinazolin-5-amine]
0.4 nM | 5.5 nM |  |  | C[C@H]1CC[C@@H](c2nc3c4ccc(C5CC5)cc4nc(N)n3n2)CN1c1cnn(CC(C)(C)O)c1 (single isomer, unassigned) [Example 205, 1-(4-((2S, 5R or 2R,5S)-5-(5-amino-8-cyclopropyl-[1,2,4]triazolo[1,5-c]quinazolin-2-yl)-2-methylpiperidin-1-yl)-1H-pyrazol-1-yl)-2-methylpropan-2-ol]
0.3 nM | 20.7 nM |  |  | Cc1ccc2c(c1)nc(N)n1nc([C@@H]3CC[C@H](C)N(c4cnn(CC(C)(C)O)c4)C3)nc21 (single isomer, unassigned) [Example 206, 1-(4-((2S, 5R or 2R,5S)-5-5-amino-8-methyl-[1,2,4]triazolo[1,5-c]quinazolin-2-yl)-2-methylpiperidin-1-yl)-1H-pyrazol-1-yl)-2-methylpropan-2-ol]
 |  | 5% inh. @ 10000 nM | 10% inh @ 10000 nM % inh. | C[C@H]1CC[C@@H](c2nc3c4ccc(C5CNC5)cc4nc(N)n3n2)CN1c1cnn(CC(C)(C)O)c1 (single isomer, unassigned) [Example 208, 1-(4-((2S,5R or 2R,5S)-5-(5-amino-8-(azetidin-3-yl)-[1,2,4]triazolo[1,5-c]quinazolin-2-yl)-2-methylpiperidin-1-yl)-1H-pyrazol-1-yl)-2-methylpropan-2-ol]
0.1 nM | 3.2 nM |  |  | COc1ccc2c(c1)nc(N)n1nc([C@@H]3CC[C@H](C)N(c4cnn(C5CCC[C@@H]5O)c4)C3)nc21 (single isomer, unassigned) [Example 210B]
0.7 nM | 1 nM |  |  | COc1cccc2c1nc(N)n1nc([C@@H]3CCCN(c4cnn(CC(F)(F)F)c4)C3)nc21 [Example 9, (R)-7-methoxy-2-(1-(1-(2,2,2-trifluoroethyl)-1H-pyrazol-4-yl)piperidin-3-yl)-[1,2,4]triazolo[1,5-c]quinazolin-5-amine]
1 nM | 24.7 nM |  |  | COc1cccc2c1nc(N)n1nc([C@@H]3CCCN(c4cnn(C)c4)C3)nc21 [Example 17, (R)-7-methoxy-2-(1-(1-methyl-1H-pyrazol-4-yl)piperidin-3-yl)-[1,2,4]triazolo[1,5-c]quinazolin-5-amine]
0.5 nM | 45.1 nM |  |  | COc1cccc2c1nc(N)n1nc([C@@H]3CCCN(c4cnn(C5(C)CC5)c4)C3)nc21 [Example 20, (R)-7-methoxy-2-(1-(1-(1-methylcyclopropyl)-1H-pyrazol-4-yl)piperidin-3-yl)-[1,2,4]triazolo[1,5-c]quinazolin-5-amine]
0.6 nM | 111 nM |  |  | COc1cccc2c1nc(N)n1nc([C@@H]3CCCN(c4cnn(C5CCOCC5)c4)C3)nc21 [Example 21, (R)-7-methoxy-2-(1-(1-(tetrahydro-2H-pyran-4-yl)-1H-pyrazol-4-yl)piperidin-3-yl)-[1,2,4]triazolo[1,5-c]quinazolin-5-amine]
1 nM | 64.2 nM |  |  | COc1cccc2c1nc(N)n1nc([C@@H]3CCCN(c4cnn(CC5(O)CCC5)c4)C3)nc21 [Example 23, (R)-1-((4-(3-(5-amino-7-methoxy-[1,2,4]-triazolo[1,5-c]quinazolin-2-yl)piperidin-1-yl)-1H-pyrazol-1-yl)methyl)cyclobutan-1-ol]
2.9 nM | 6.9 nM |  |  | COc1cccc2c1nc(N)n1nc([C@@H]3CCCN(c4cnn([C@H]5CCCC[C@H]5O)c4)C3)nc21 [Example 24, (1R,2S)-2-(4-((R)-3-(5-amino-7-methoxy-[1,2,4]triazolo[1,5-c]quinazolin-2-yl)piperidin-1-yl)-1H-pyrazol-1-yl)cyclohexan-1-ol]
2.3 nM | 5.7 nM |  |  | COc1cccc2c1nc(N)n1nc([C@@H]3CCCN(c4cnn([C@@H]5CCCC[C@@H]5O)c4)C3)nc21 [Example 25]
3.5 nM | 2 nM |  |  | CNC(=O)C(C)(C)n1cc(N2CCC[C@@H](c3nc4c5cccc(OC)c5nc(N)n4n3)C2)cn1 [Example 26, (R)-2-(4-(3-(5-annino-7-methoxy-[1,2,4]triazolo[1,5-c]quinazolin-2-yl)piperidin-1-yl)-1H-pyrazol-1-yl)-N,2-dimethylpropanamide]
